# Data taken from the OPERA property sets (Mansouri et al. 2018).
row,SMILES,logP
1,COc1cccc(C2=NCC(=O)Nc3ccc(Cl)cc32)c1,3.14
2,CCOC(=O)CN(C(=O)CCl)c1ccccc1CC,2.57
3,COc1cc(Cc2cnc(N)nc2N)cc(OC)c1SC,1.54
4,COc1ncnc2ccccc12,1.97
5,CCN(CCOC(C)=O)c1ccccc1,2.04
6,O=[N+]([O-])C=Cc1ccc([N+](=O)[O-])cc1,1.89
7,N#Cc1ccc2nccnc2c1,1.01
8,Cc1[nH]c(=O)n(OC(C)C)c(=O)c1Br,0.45
9,COc1ccc(Cc2cnc(N)nc2N)cc1I,2.09
10,CCCCOCc1c(CO)cnc(C)c1O,1.34
11,COc1ccc(Br)cc1Cc1cnc(N)nc1N,2.44
12,CC(=O)N(C)c1c(I)c(C(=O)NCC(O)CO)c(I)c(C(=O)NCC(O)CO)c1I (centres undefined),-2.06
13,O=[N+]([O-])c1c(Cl)c[n+]([O-])c2ccccc12,1.33
14,Brc1cccc(Br)c1NC1=NCCN1,1.96
15,CCCCCCCCCCCCCCCC[n+]1cc(C)cc(C)c1.[I-],3.35
16,CN(C)N=Nc1ccc(S(N)(=O)=O)cc1,1.06
17,Cc1ncc([N+](=O)[O-])n1CCCS(C)(=O)=O,-1
18,[N-]=[N+]=CC(=O)NCC(=O)NCCO,-1.35
19,Clc1cc2ccccc2nn1,1.57
20,COc1ccc(CN(C)N=Nc2ccc(C(=O)O)cc2)cc1,4.43
21,CC1=Nc2ccc(C)cc2S(=O)(=O)N1,0.81
22,O=C1CN=C(c2ccccc2Cl)c2cc(Cl)ccc2N1,3.15
23,NC(=O)CCCn1nnc2ccccc21,0.37
24,CCN1C(=O)CN=C(c2ccccc2)c2cc(Cl)ccc21,3.21
25,CCc1cnc2cccc(C)n2c1=O,1.79
26,O=S1(=O)NC(C2CC=CCC2)=Nc2ccccc21 (centres undefined),2.05
27,CSC(C)=NOC(=O)N(C)SN(C)C(=O)C(C)C,2.2
28,COc1cc(Cc2cnc(N)nc2N)cc(OC)n1,1.64
29,CCCCCCCCCCCC[n+]1ccc(C)c(C)c1.[I-],1.75
